According to ChEMBL document CHEMBL1154947, “Discovery of N-(5,6-diarylpyridin-2-yl)amide derivatives as potent and selective A(2B) adenosine receptor antagonists” (Bioorg Med Chem Lett, 2010):

target: T1, Adenosine receptor A2a (Homo sapiens, UniProt P29274); assay: Displacement of [3H]ZM241385 from human adenosine A2A receptor expressed in human HeLa cells after 1 hr by scintillation proximity assay; assay type: cell-based; settings: not given
T1 sequence (P29274 whole entry): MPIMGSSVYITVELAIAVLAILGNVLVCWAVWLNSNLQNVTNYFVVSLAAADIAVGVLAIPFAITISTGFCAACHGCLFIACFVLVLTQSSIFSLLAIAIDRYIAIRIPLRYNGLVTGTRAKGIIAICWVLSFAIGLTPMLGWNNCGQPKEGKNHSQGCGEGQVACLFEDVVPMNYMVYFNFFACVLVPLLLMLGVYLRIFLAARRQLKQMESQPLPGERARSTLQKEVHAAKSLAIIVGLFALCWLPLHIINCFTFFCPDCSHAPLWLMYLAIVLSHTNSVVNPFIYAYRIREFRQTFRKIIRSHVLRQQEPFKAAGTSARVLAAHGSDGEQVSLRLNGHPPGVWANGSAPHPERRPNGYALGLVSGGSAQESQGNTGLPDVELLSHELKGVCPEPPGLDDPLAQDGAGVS

| Ki [nM] | SMILES |
| --- | --- |
| 302 | O=C(Nc1ccc(-c2ccncc2)c(-c2nccs2)n1)C1CC1 |
| 30 | O=C(Nc1ccc(-c2ccncc2)c(-c2ccco2)n1)C1CC1 |
| 209 | CC(=O)Nc1ccc(-c2ccncc2)c(-c2ccco2)n1 |
| 813 | O=C(Nc1ccc(-c2ccncc2)c(-c2cncs2)n1)C1CC1 |
| 239 | O=C(Nc1ccc(-c2ccncn2)c(-c2ccco2)n1)C1CC1 |
| 39 | O=C(Nc1ccc(-c2ccncc2)c(-c2ccc(F)cc2)n1)C1CC1 |
| 150 | O=C(Nc1ccc(-c2ccncc2F)c(-c2ccco2)n1)C1CC1 |

target: T2, Adenosine receptor A3 (Homo sapiens, UniProt P0DMS8); assay: Displacement of [3H]NECA from human adenosine A3 receptor expressed in human HeLa cells after 3 hrs by filtration binding assay; assay type: cell-based; settings: not given
T2 sequence (P0DMS8 whole entry): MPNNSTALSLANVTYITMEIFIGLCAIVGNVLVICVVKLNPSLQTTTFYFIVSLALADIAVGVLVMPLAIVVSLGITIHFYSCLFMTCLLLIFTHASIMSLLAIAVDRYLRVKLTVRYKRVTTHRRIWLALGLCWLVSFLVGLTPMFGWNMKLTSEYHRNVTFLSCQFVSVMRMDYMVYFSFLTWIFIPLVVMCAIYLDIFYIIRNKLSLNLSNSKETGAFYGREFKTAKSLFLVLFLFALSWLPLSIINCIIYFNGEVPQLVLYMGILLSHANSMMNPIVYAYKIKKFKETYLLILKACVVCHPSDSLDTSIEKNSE

| Ki [nM] | SMILES |
| --- | --- |
| 1040 | c1cncc(Nc2ncc(-c3ccncn3)c(-c3ccco3)n2)c1 |
| 1340 | O=C(Nc1ccc(-c2ccncc2)c(-c2ccco2)n1)C1CC1 |
| 333 | CC(=O)Nc1ccc(-c2ccncc2)c(-c2ccco2)n1 |
| 4850 | O=C(Nc1ccc(-c2ccncc2)c(-c2cncs2)n1)C1CC1 |
| 3750 | O=C(Nc1ccc(-c2ccncn2)c(-c2ccco2)n1)C1CC1 |

target: T3, Adenosine receptor A2b (Homo sapiens) (UniProt P29275); assay: Inhibition of [3H]DPCPX binding to human adenosine A2B receptor expressed in HEK293 cells at 1 uM after 60 mins by filtration binding assay; assay type: cell-based; settings: not given
T3 sequence (whole entry): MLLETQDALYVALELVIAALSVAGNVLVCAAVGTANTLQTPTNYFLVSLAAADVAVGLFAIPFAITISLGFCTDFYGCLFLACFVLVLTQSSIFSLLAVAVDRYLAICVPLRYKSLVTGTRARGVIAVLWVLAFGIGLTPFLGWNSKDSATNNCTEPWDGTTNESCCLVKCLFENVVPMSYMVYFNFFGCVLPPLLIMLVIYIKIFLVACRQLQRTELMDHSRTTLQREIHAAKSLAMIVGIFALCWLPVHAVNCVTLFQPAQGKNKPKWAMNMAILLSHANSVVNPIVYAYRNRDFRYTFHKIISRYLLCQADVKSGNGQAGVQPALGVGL

| inhibition [%] | SMILES |
| --- | --- |
| 29 | O=C(Nc1ccc(-c2ccncc2)cn1)C1CC1 |

target: T1, Adenosine receptor A2a; assay: Inhibition of [3H]ZM241385 binding to human adenosine A2A receptor expressed in human HeLa cells at 1 uM after 1 hr by scintillation proximity assay; assay type: cell-based; settings: not given

| inhibition [%] | SMILES |
| --- | --- |
| 7 | O=C(Nc1ccc(-c2ccncc2)c(Cl)n1)C1CC1 |
| 10 | CC(=O)Nc1ncc(-c2ccncn2)c(-c2ccco2)n1 |
| 9 | O=C(Nc1ccc(-c2ccncc2)c(-c2ccncn2)n1)C1CC1 |
| 4 | O=C(Nc1ccc(-c2ccncc2)c(-c2cc[nH]n2)n1)C1CC1 |
| 2 | O=C(Nc1ccc(-c2ccncc2)cn1)C1CC1 |
| 20 | CC(=O)Nc1ccc(-c2ccncn2)c(-c2ccco2)n1 |
| 2 | CC(=O)c1nc(NC(=O)C2CC2)ccc1-c1ccncc1 |

target: T4, Adenosine receptor A1 (Homo sapiens) (UniProt P30542); assay: Inhibition of [3H]DPCPX binding to human adenosine A1 receptor expressed in CHO cells at 1 uM after 90 mins by filtration binding assay; assay type: cell-based; settings: not given
T4 sequence (whole entry): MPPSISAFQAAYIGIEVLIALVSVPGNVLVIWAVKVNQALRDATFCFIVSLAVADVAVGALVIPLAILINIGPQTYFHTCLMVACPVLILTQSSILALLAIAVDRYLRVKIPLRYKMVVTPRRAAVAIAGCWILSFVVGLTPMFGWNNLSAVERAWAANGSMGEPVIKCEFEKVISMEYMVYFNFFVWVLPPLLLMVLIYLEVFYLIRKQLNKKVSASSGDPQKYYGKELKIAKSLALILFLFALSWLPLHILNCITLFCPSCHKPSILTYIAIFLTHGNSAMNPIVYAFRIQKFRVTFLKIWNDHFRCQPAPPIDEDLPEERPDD

| inhibition [%] | SMILES |
| --- | --- |
| 5 | O=C(Nc1ccc(-c2ccncc2)c(Cl)n1)C1CC1 |
| 2 | CC(=O)Nc1ncc(-c2ccncn2)c(-c2ccco2)n1 |
| 3 | O=C(Nc1ccc(-c2ccncc2)c(-c2ccncn2)n1)C1CC1 |
| 3 | O=C(Nc1ccc(-c2ccncc2)c(-c2cc[nH]n2)n1)C1CC1 |
| 8 | O=C(Nc1ccc(-c2ccncc2)cn1)C1CC1 |
| 7 | CC(=O)Nc1ccc(-c2ccncn2)c(-c2ccco2)n1 |
| 6 | CC(=O)c1nc(NC(=O)C2CC2)ccc1-c1ccncc1 |

target: T5, Adenosine receptor A3 (Homo sapiens) (UniProt P0DMS8); assay: Inhibition of [3H]NECA binding to human adenosine A3 receptor expressed in human HeLa cells at 1 uM after 3 hrs by filtration binding assay; assay type: cell-based; settings: not given
T5 sequence (whole entry): T2 sequence (P0DMS8 whole entry)

| inhibition [%] | SMILES |
| --- | --- |
| 14 | O=C(Nc1ccc(-c2ccncc2)c(Cl)n1)C1CC1 |
| 2 | CC(=O)Nc1ncc(-c2ccncn2)c(-c2ccco2)n1 |
| 3 | O=C(Nc1ccc(-c2ccncc2)c(-c2ccncn2)n1)C1CC1 |
| 1 | O=C(Nc1ccc(-c2ccncc2)c(-c2cc[nH]n2)n1)C1CC1 |
| 11 | O=C(Nc1ccc(-c2ccncc2)c(-c2nccs2)n1)C1CC1 |
| 7 | O=C(Nc1ccc(-c2ccncc2)cn1)C1CC1 |
| 28 | CC(=O)Nc1ccc(-c2ccncn2)c(-c2ccco2)n1 |
| 2 | CC(=O)c1nc(NC(=O)C2CC2)ccc1-c1ccncc1 |
| 27 | O=C(Nc1ccc(-c2ccncc2)c(-c2ccc(F)cc2)n1)C1CC1 |
| 11 | O=C(Nc1ccc(-c2ccncc2F)c(-c2ccco2)n1)C1CC1 |

tested on: not listed separately; assay: Metabolic stability in rat liver microsomes assessed as turnover at 5 uM after 30 mins in absence of NADPH; assay type: ADME, Microsome; settings: read-out: Activity

| metabolised at 0.5 h, 5 µM [%] | SMILES |
| --- | --- |
| 27 | O=C(Nc1ccc(-c2ccncn2)c(-c2ccco2)n1)C1CC1 |
| 99 | O=C(Nc1ccc(-c2ccncc2F)c(-c2ccco2)n1)C1CC1 |

tested on: not listed separately; assay: Terminal half life in rat at 1 mg/kg, iv; assay type: ADME, organism-based; parameters: dose 1 mg/kg, route intravenous; settings: in vivo, read-out: beta t1/2 (converted)

| half-life [min] | SMILES |
| --- | --- |
| 30 | O=C(Nc1ccc(-c2ccncn2)c(-c2ccco2)n1)C1CC1 |

tested on: not listed separately; assay: Cmax in rat at 1 mg/kg, iv; assay type: ADME, organism-based; parameters: dose 1 mg/kg, route intravenous; settings: in vivo

| Cmax [ng/mL] | SMILES |
| --- | --- |
| 538 | O=C(Nc1ccc(-c2ccncn2)c(-c2ccco2)n1)C1CC1 |

tested on: not listed separately; assay: Clearance in rat at 1 mg/kg, iv; assay type: ADME, organism-based; parameters: dose 1 mg/kg, route intravenous; settings: in vivo

| clearance [mL/min/kg] | SMILES |
| --- | --- |
| 63.3 | O=C(Nc1ccc(-c2ccncn2)c(-c2ccco2)n1)C1CC1 |

tested on: not listed separately; assay: AUC (0 to infinity) in rat at 1 mg/kg, iv; assay type: ADME, organism-based; parameters: time infinity, dose 1 mg/kg, route intravenous; settings: plasma

| AUC(0-inf) [ng·h/mL] | SMILES |
| --- | --- |
| 267 | O=C(Nc1ccc(-c2ccncn2)c(-c2ccco2)n1)C1CC1 |

tested on: not listed separately; assay: Volume of distribution at steady state in rat at 1 mg/kg, iv; assay type: ADME, organism-based; parameters: dose 1 mg/kg, route intravenous; settings: in vivo, read-out: Vdss

| Vd [L/kg] | SMILES |
| --- | --- |
| 1.6 | O=C(Nc1ccc(-c2ccncn2)c(-c2ccco2)n1)C1CC1 |

tested on: not listed separately; assay: Tmax in rat at 10 mg/kg, po; assay type: ADME, organism-based; parameters: dose 10 mg/kg, route oral; settings: in vivo

| Tmax [min] | SMILES |
| --- | --- |
| 18 | O=C(Nc1ccc(-c2ccncn2)c(-c2ccco2)n1)C1CC1 |

tested on: not listed separately; assay: Oral bioavailability in rat at 10 mg/kg; assay type: ADME, organism-based; settings: in vivo

| bioavailability [%] | SMILES |
| --- | --- |
| 39 | O=C(Nc1ccc(-c2ccncn2)c(-c2ccco2)n1)C1CC1 |

tested on: not listed separately; assay: Metabolic stability in human liver microsomes assessed as turnover at 5 uM after 30 mins in absence of NADPH; assay type: ADME, Microsome; settings: read-out: Activity

| metabolised at 0.5 h, 5 µM [%] | SMILES |
| --- | --- |
| 77 | O=C(Nc1ccc(-c2ccncc2F)c(-c2ccco2)n1)C1CC1 |

target: T6, Adenosine receptor A2b (Homo sapiens, UniProt P29275); assay: biochemical; settings: not given
T6 sequence (P29275 whole entry): T3 sequence (whole entry)

| Ki [nM] | SMILES |
| --- | --- |
| 380 | O=C(Nc1ccc(-c2ccncc2)c(Cl)n1)C1CC1 |
| 380 | CC(=O)Nc1ncc(-c2ccncn2)c(-c2ccco2)n1 |
| 208 | O=C(Nc1ccc(-c2ccncc2)c(-c2ccncn2)n1)C1CC1 |
| 202 | O=C(Nc1ccc(-c2ccncc2)c(-c2cc[nH]n2)n1)C1CC1 |
| 42 | O=C(Nc1ccc(-c2ccncc2)c(-c2nccs2)n1)C1CC1 |
| 1 | O=C(Nc1ccc(-c2ccncc2)c(-c2ccco2)n1)C1CC1 |
| 7 | CC(=O)Nc1ccc(-c2ccncc2)c(-c2ccco2)n1 |
| 47 | CC(=O)Nc1ccc(-c2ccncn2)c(-c2ccco2)n1 |
| 3670 | CC(=O)c1nc(NC(=O)C2CC2)ccc1-c1ccncc1 |
| 78 | O=C(Nc1ccc(-c2ccncc2)c(-c2cncs2)n1)C1CC1 |
| 4 | O=C(Nc1ccc(-c2ccncn2)c(-c2ccco2)n1)C1CC1 |
| 4 | O=C(Nc1ccc(-c2ccncc2)c(-c2ccc(F)cc2)n1)C1CC1 |
| 1 | O=C(Nc1ccc(-c2ccncc2F)c(-c2ccco2)n1)C1CC1 |

target: T7, Adenosine receptor A1 (Homo sapiens, UniProt P30542); assay: biochemical; settings: not given
T7 sequence (P30542 whole entry): T4 sequence (whole entry)

| Ki [nM] | SMILES |
| --- | --- |
| 2820 | c1cncc(Nc2ncc(-c3ccncn3)c(-c3ccco3)n2)c1 |
| 914 | O=C(Nc1ccc(-c2ccncc2)c(-c2nccs2)n1)C1CC1 |
| 82 | O=C(Nc1ccc(-c2ccncc2)c(-c2ccco2)n1)C1CC1 |
| 358 | CC(=O)Nc1ccc(-c2ccncc2)c(-c2ccco2)n1 |
| 320 | O=C(Nc1ccc(-c2ccncc2)c(-c2cncs2)n1)C1CC1 |
| 931 | O=C(Nc1ccc(-c2ccncn2)c(-c2ccco2)n1)C1CC1 |
| 35 | O=C(Nc1ccc(-c2ccncc2)c(-c2ccc(F)cc2)n1)C1CC1 |
| 374 | O=C(Nc1ccc(-c2ccncc2F)c(-c2ccco2)n1)C1CC1 |
